System: ABCA1 mRNA
Experiment: ABCA1 mRNA induction in THP-1 cells, QuantiGene branched DNA assay
Format: cell-based
Settings: 10 μM test compound, 18-20 hours; for fold induction at 10 µM: Homo sapiens, read-out: ABCA1 Induction Fold Increase over DMSO Vehicle
Method in brief: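 THP-1 cells, grown to subconfluence, treated with compounds at 10 and 3 μM in DMEM/BSA for 18–20 h. Lysates hybridized with ABCA1-specific probe 16–18 h at 53 °C; QuantiGene branched DNA luminescence gives fold increase over DMSO.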

Compound | ABCA1 Induction Fold Increase over DMSO Vehicle [FOLD INCREASE] | fold induction at 10 µM
COc1cccc2c1[C@H]1Nc3ccccc3C(C)(C)[C@H]1CO2 [Number 53, (12aS,6aR)-1-methoxy-7,7-dimethyl-7,12,12a,6a-tetrahydrochromano[4,3-b]quinoline] | 3.5 | –
COc1cccc2c1[C@H]1Nc3ccc(Cc4nnn[nH]4)cc3C(C)(C)[C@H]1CO2 [Number 84, (12aS,6aR)-1-methoxy-7,7-dimethyl-9-(1,2,3,4-tetraazol-5-ylmethyl)-7,12,12a,6a-tetrahydrochromano[4,3-b]quinoline] | 8.6 | –
COc1cc(Br)cc2c1OC[C@@H]1[C@@H]2Nc2ccc(-c3nnn[nH]3)cc2C1(C)C [Number 169, (6aS,12aS)-2-bromo-6a,7,12,12a-tetrahydro-4-methoxy-7,7-dimethyl-9-(1H-tetrazol-5-yl)-6H-chromeno[4,3-b]quinoline] | – | 9.7
CC1(C)c2cc(C(O)(C(F)(F)F)C(F)(F)F)ccc2NC2c3cc(Br)ccc3OCC21 (stereo not shown) [Number 1, 2-(2-bromo-7,7-dimethyl(7,12,12a,6a-tetrahydrochromano[4,3-b]quinolin-9-yl))-1,1,1,3,3,3-hexafluoropropan-2-ol] | 4.4 | –
COc1cccc2c1[C@H]1Nc3ccc(-c4ccc(C#N)cc4)cc3C(C)(C)[C@@H]1CO2 [Number 92, 4-((12aS,6aS)-1-methoxy-7,7-dimethyl-7,12,12a,6a-tetrahydrochromano[4,3-b]quinolin-9-yl)benzenecarbonitrile] | 8.7 | –
COc1cccc2c1OC[C@H]1[C@@H]2Nc2ccc(C(=O)N3CCS(=O)(=O)CC3)cc2C1(C)C [Number 129, ((6aR,12aS)-6a,7,12,12a-tetrahydro-4-methoxy-7,7-dimethyl-6H-chromeno[4,3-b]quinolin-9-yl)(1,1-dione-1,4-thiazaperhydroin-yl)methanone] | 4.3 | –
COc1cccc2c1OC[C@H]1[C@@H]2Nc2ccc(-c3nc(C(=O)O)co3)cc2C1(C)C [Number 146, 2-((6aR,12aS)-6a,7,12,12a-tetrahydro-4-methoxy-7,7-dimethyl-6H-chromeno[4,3-b]quinolin-9-yl)oxazole-4-carboxylic acid] | – | 8.2
COc1cccc2c1[C@H]1Nc3ccc(-c4ccc(C(F)(F)F)cc4)cc3C(C)(C)[C@@H]1CO2 [Number 93, (12aS,6aS)-1-methoxy-7,7-dimethyl-9-[4-(trifluoromethyl)phenyl]-7,12,12a,6a-tetrahydrochromano[4,3-b]quinoline] | 6.8 | –
CNS(=O)(=O)Cc1ccc2c(c1)C(C)(C)C1COc3c(OC)cccc3C1N2 (stereo not shown) [Number 59, {[(4-methoxy-7,7-dimethyl(7,12,12a,6a-tetrahydrochromano[4,3-b]quinolin-9-yl))methyl]sulfonyl}methylamine] | 6.1 | –
COc1ccc2c(c1)C(C)(C)[C@H]1COc3cccc(OC)c3[C@H]1N2Cc1ccccc1 [Number 158, (6aR,12aS)-12-benzyl-6a,7,12,12a-tetrahydro-1,9-dimethoxy-7,7-dimethyl-6H-chromeno[4,3-b]quinoline] | – | 9.2
COc1ccc(Br)c2c1OC[C@@H]1[C@H]2Nc2ccc(C(O)(C(F)(F)F)C(F)(F)F)cc2C1(C)C [Number 64, 2-((6aS,12aR)-1-bromo-4-methoxy-7,7-dimethyl(7,12,12a,6a-tetrahydrochromano[4,3-b]quinolin-9-yl))-1,1,1,3,3,3-hexafluoropropan-2-ol] | 2.5 | –
COc1cccc2c1OC[C@H]1[C@@H]2Nc2ccc(-c3ccc(F)cc3)cc2C1(C)C [Number 99, (12aS,6aR)-9-(4-fluorophenyl)-4-methoxy-7,7-dimethyl-7,12,12a,6a-tetrahydrochromano[4,3-b]quinoline] | – | 1.7
COc1cc(Br)cc2c1OC[C@H]1[C@@H]2Nc2ccc(-c3cnco3)cc2C1(C)C [Number 149, (6aR,12aS)-2-bromo-6a,7,12,12a-tetrahydro-4-methoxy-7,7-dimethyl-9-(oxazol-5-yl)-6H-chromeno[4,3-b]quinoline] | – | 5.5
COc1cccc2c1[C@H]1Nc3ccc(-c4ccc(CCC(=O)O)cc4)cc3C(C)(C)[C@H]1CO2 [Number 114, 3-[4-((12aS,6aR)-1-methoxy-7,7-dimethyl-7,12,12a,6a-tetrahydrochromano[4,3-b]quinolin-9-yl)phenyl]propanoic acid] | 2.7 | –
COc1ccc(-c2ccc3c(c2)C(C)(C)[C@H]2COc4cccc(OC)c4[C@H]2N3)cc1 [Number 112, 1-((12aS,6aR)-1-methoxy-7,7-dimethyl(7,12,12a,6a-tetrahydrochromano[4,3-b]quinolin-9-yl))-4-methoxybenzene] | 1.7 | –
COc1cccc2c1OC[C@@H]1[C@H]2Nc2ccc(F)cc2C1(C)C [Number 48, (6aS,12aR)-9-fluoro-4-methoxy-7,7-dimethyl-7,12,12a,6a-tetrahydrochromano[4,3-b]quinoline] | 3.7 | –

Compound | ABCA1 Induction Fold Increase over DMSO Vehicle [FOLD INCREASE] | fold induction at 10 µM
CC1(C)c2cc(CC(=O)O)ccc2NC2c3cc(Br)ccc3OCC21 (stereo not shown) [Number 4, 2-(2-bromo-7,7-dimethyl-7,12,12a,6a-tetrahydrochromano[4,3-b]quinolin-9-yl)acetic acid] | 2.1 | –
CC(C)=CCOC(=O)c1ccc2c(c1)OC[C@@H]1[C@H]2Nc2ccc(B(O)O)cc2C1(C)C [Number 10, 3-methylbut-2-enyl (6aS,12aR)-9-(dihydroxyboramethyl)-7,7-dimethyl-7,12,12a,6a-tetrahydrochromano[4,3-b]quinoline-3-carboxylate] | 1.5 | –
COc1cccc2c1[C@H]1Nc3ccc(C(=O)NCCO)cc3C(C)(C)[C@H]1CO2 [Number 117, (6aR,12aS)-6a,7,12,12a-tetrahydro-N-(2-hydroxyethyl)-1-methoxy-7,7-dimethyl-6H-chromeno[4,3-b]quinoline-9-carboxamide] | – | 8.6
CNS(=O)(=O)Cc1ccc2c(c1)C(C)(C)C1COc3cccc(OC)c3C1N2 (stereo not shown) [Number 89, {[(1-methoxy-7,7-dimethyl(7,12,12a,6a-tetrahydrochromano[4,3-b]quinolin-9-yl))methyl]sulfonyl}methylamine] | 6.4 | –
COc1cccc2c1[C@H]1Nc3ccc(S(C)(=O)=O)cc3C(C)(C)[C@H]1CO2 [Number 122, (6aR,12aS)-6a,7,12,12a-tetrahydro-1-methoxy-7,7-dimethyl-9-(methylsulfonyl)-6H-chromeno[4,3-b]quinoline] | – | 2.4
COC(=O)c1ccc2c(c1)C(C)(C)[C@H]1COc3c(OC)cc(-c4cn[nH]c4)cc3[C@H]1N2 [Number 161, (6aR,12aS)-methyl 6a,7,12,12a-tetrahydro-4-methoxy-7,7-dimethyl-2-(1H-pyrazol-4-yl)-6H-chromeno[4,3-b]quinoline-9-carboxylate] | – | 8.1
CCOC(=O)c1ccc(-c2ccc3c(c2)C(C)(C)[C@H]2COc4cccc(OC)c4[C@H]2N3)cc1 (relative stereo) [Number 107, ethyl 4-((12aS,6aR)-1-methoxy-7,7-dimethyl-7,12,12a,6a-tetrahydrochromano[4,3-b]quinolin-9-yl)benzoate] | 2.9 | –
CC1(C)c2cc(C(O)(C(F)(F)F)C(F)(F)F)ccc2N[C@@H]2c3cc(Br)ccc3OC[C@H]21 [Number 3, 2-((12aS,6aS)-2-bromo-7,7-dimethyl(7,12,12a,6a-tetrahydrochromano[4,3-b]quinolin-9-yl))-1,1,1,3,3,3-hexafluoropropan-2-ol] | 3.0 | –
COc1cccc2c1[C@H]1Nc3ccc(-c4ccc(C(=O)O)cc4)cc3C(C)(C)[C@H]1CO2 [Number 106, 4-((12aS,6aR)-1-methoxy-7,7-dimethyl-7,12,12a,6a-tetrahydrochromano[4,3-b]quinolin-9-yl)benzoic acid] | 4.8 | –
COc1cccc2c1[C@H]1Nc3ccc(Br)cc3C(C)(C)[C@H]1CO2 [Number 85, (12aS,6aR)-9-bromo-1-methoxy-7,7-dimethyl-7,12,12a,6a-tetrahydrochromano[4,3-b]quinoline] | 8.0 | –
COC(=O)c1ccc2c(c1)C(C)(C)[C@H]1COc3cccc(OC)c3[C@H]1N2C [Number 153, (6aR,12aS)-methyl 6a,7,12,12a-tetrahydro-1-methoxy-7,7,12-trimethyl-6H-chromeno[4,3-b]quinoline-9-carboxylate] | – | 7.4
CC1(C)C2=C(Nc3ccc(B(O)O)cc31)c1ccc(C(=O)O)cc1OC2 [Number 17, 9-(dihydroxyboramethyl)-7,7-dimethyl-7,12-dihydro-6H-chromeno[4,3-b]quinoline-3-carboxylic acid] | – | 1.8
COc1cccc2c1[C@H]1Nc3ccc(-c4ccc(C(N)=O)cc4)cc3C(C)(C)[C@H]1CO2 [Number 108, 4-((12aS,6aR)-1-methoxy-7,7-dimethyl-7,12,12a,6a-tetrahydrochromano[4,3-b]quinolin-9-yl)benzamide] | 4.7 | –
COc1cc(-c2cn[nH]c2)cc2c1OC[C@@H]1[C@@H]2Nc2ccc(-c3cnco3)cc2C1(C)C [Number 160, (6aS,12aS)-6a,7,12,12a-tetrahydro-4-methoxy-7,7-dimethyl-9-(oxazol-5-yl)-2-(1H-pyrazol-4-yl)-6H-chromeno[4,3-b]quinoline] | – | 4.7
COc1cccc2c1[C@H]1Nc3ccc(S(=O)(=O)CC(=O)O)cc3C(C)(C)[C@H]1CO2 [Number 124, 2-((6aR,12aS)-6a,7,12,12a-tetrahydro-1-methoxy-7,7-dimethyl-6H-chromeno[4,3-b]quinolin-9-ylsulfonyl)acetic acid] | – | 3.3

— patent publication US7432276B2, “ABCA1 elevating compounds” (CV Therapeutics, Inc., priority 2005, dated 2008)
